The structures appear in SMILES notation.

One may read the IC50 as the concentration that gives 50% inhibition.

The experiment has as its target T1, USP28 (His-tagged USP28-FL-mammalian) (Homo sapiens, UniProt Q96RU2).
T1 construct: Expression of USP28 (1-1077)-TEV-6*His (pTT5 vector); made in house; host or cells: Expi293f cells (pTT5 vector)
T1 sequence (Q96RU2 1-1077): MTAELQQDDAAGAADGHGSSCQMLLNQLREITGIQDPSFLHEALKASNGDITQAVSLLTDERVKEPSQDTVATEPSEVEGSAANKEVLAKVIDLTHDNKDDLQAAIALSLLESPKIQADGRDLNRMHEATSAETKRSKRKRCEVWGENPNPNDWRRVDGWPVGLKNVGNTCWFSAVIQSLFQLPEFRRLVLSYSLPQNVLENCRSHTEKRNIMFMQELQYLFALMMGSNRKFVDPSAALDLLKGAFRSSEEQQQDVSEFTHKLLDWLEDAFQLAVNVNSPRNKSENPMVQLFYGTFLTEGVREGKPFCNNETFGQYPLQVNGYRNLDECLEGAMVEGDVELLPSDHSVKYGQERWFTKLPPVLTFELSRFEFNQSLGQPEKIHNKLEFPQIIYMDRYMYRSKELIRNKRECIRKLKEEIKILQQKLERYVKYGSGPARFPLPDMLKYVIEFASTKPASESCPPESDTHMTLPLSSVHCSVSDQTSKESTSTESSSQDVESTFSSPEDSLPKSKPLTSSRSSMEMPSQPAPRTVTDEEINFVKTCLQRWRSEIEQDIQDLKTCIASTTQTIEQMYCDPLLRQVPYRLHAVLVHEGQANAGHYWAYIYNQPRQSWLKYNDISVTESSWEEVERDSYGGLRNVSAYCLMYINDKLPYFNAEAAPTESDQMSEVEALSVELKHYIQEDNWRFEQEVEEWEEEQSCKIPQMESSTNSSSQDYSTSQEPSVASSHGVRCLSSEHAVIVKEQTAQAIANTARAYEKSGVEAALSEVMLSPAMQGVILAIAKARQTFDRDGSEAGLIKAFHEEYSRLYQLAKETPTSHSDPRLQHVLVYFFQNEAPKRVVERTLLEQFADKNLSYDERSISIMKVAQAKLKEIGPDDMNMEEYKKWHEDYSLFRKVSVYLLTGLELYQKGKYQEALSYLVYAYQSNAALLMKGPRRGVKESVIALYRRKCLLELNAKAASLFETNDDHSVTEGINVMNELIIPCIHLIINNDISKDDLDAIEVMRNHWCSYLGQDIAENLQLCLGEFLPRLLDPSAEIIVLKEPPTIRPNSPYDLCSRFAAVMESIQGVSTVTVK
As to the kind of experiment: Ubiquitin-Rhodamine 110 Assay for USP28 Activity, Example A-1(a). Type of experiment: biochemical. Particulars: Ubiquitin-Rhodamine 110 assay, Example A-1(a); read-out: USP28 A-1(a) IC50 range. A digest of the protocol:
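IC50 from 4-parameter logistic fit of percent inhibition versus no-enzyme and DMSO controls; compounds 25 μM to 1.3 nM, 3-fold. Ub-Rh110 cleavage (25 nM, below Km) by […] mammalian-expressed USP28-FL-His ran 45 min at room temperature, stopped with 10 mM citric acid, read ex 485/em 535.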
In the case of `Cc1ccc2c(N)c(C(=O)N[C@H]3CCc4nc(N5CC[C@](N)(CO)C5)ccc4C3)sc2n1` [Example 386, 3-amino-N-[(6S)-2-[(3R)-3-amino-3-(hydroxymethyl)pyrrolidin-1-yl]-5,6,7,8-tetrahydroquinolin-6-yl]-6-methylthieno[2,3-b]pyridine-2-carboxamide], the IC50 was in the range of 50 to 200 nM.

For the compound `Cc1ccc2c(N)c(C(=O)N[C@H]3CCc4nc(N5C[C@H](CF)[C@@H](N)C5)ccc4C3)sc2n1` [Example 384, 3-amino-N-[(6S)-2-[(3R,4S)-3-amino-4-(fluoromethyl)pyrrolidin-1-yl]-5,6,7,8-tetrahydroquinolin-6-yl]-6-methylthieno[2,3-b]pyridine-2-carboxamide], the IC50 lay within 50 to 200 nM.

With `CN[C@@H]1CN(c2ccc3c(n2)CC[C@H](NC(=O)c2sc4nc(C)ccc4c2N)C3)C[C@H]1C(F)F` [Example 377, 3-amino-N-[(6S)-2-[(3R,4S)-3-(difluoromethyl)-4-(methylamino)pyrrolidin-1-yl]-5,6,7,8-tetrahydroquinolin-6-yl]-6-methylthieno[2,3-b]pyridine-2-carboxamide], the IC50 was 50 to 200 nM.

`Cc1ccc2c(N)c(C(=O)N[C@H]3CCc4nc(N5CCN[C@H](C(F)F)C5)ccc4C3)sc2n1` [Example 374, 3-amino-N-[(6S)-2-[(3S)-3-(difluoromethyl)piperazin-1-yl]-5,6,7,8-tetrahydroquinolin-6-yl]-6-methylthieno[2,3-b]pyridine-2-carboxamide]: the IC50 was 50 to 200 nM.

On to `CCn1ccc2cc(C(=O)N[C@H]3CCc4nc(N5C[C@H](N)[C@@H](C(F)(F)F)C5)ccc4C3)cnc21` [Example 421, N-[(6S)-2-[(3R,4S)-3-amino-4-(trifluoromethyl)pyrrolidin-1-yl]-5,6,7,8-tetrahydroquinolin-6-yl]-1-ethyl-1H-pyrrolo[2,3-b]pyridine-5-carboxamide], for which the IC50 lay within 50 to 200 nM.

On to `Cc1ccc2c(N)c(C(=O)N[C@H]3COc4cc(N5C[C@@H](CF)[C@@H](N)C5)ccc4C3)sc2n1` [Example 423, 3-amino-N-[(3R)-7-[(3R,4R)-3-amino-4-(fluoromethyl)pyrrolidin-1-yl]-3,4-dihydro-2H-1-benzopyran-3-yl]-6-methylthieno[2,3-b]pyridine-2-carboxamide], for which the IC50 lay in the range of 1 to 50 nM.

`Cc1ccc2c(N)c(C(=O)N[C@H]3CCc4nc(N5CC[C@@]6(C5)OCC[C@@H]6N)ccc4C3)sc2n1` [Example 407, 3-amino-N-[(6S)-2-[(4S,5S)-4-amino-1-oxa-7-azaspiro[4.4]nonan-7-yl]-5,6,7,8-tetrahydroquinolin-6-yl]-6-methylthieno[2,3-b]pyridine-2-carboxamide]: the IC50 is 50 to 200 nM.

The record behind these values is US11524966B1 (Valo Early Discovery, Inc., priority 2017, dated 2022).
